Measured values from patent US10864188B2, “Anti-microbial composition” (SEPTEOS, priority 2010, dated 2020).

Columns and labels:
Other Gram - rods = test: MIC of pure components in Mueller Hinton gelose; format: cell-based; parameters: unit not given beside the values; conditions: Other Gram - rods n = 15
Enterobacteriaceae = test: MIC of pure components in Mueller Hinton gelose; format: cell-based; parameters: unit not given beside the values; conditions: Enterobacteriaceae n = 13
[1] = tested on: Staphylococcus And Enterococcus; test: MIC of pure components in Mueller Hinton gelose; format: cell-based; parameters: MIC 50 / MIC 90: unit not given beside the values; conditions: Staphylococcus And Enterococcus n = 14; for MIC Range: in µg/mL
MRSA = conditions: cited from earlier work

SMILES	MIC Range (Other Gram - rods)	MIC 50 (Other Gram - rods)	MIC 90 (Other Gram - rods)	MIC Range [1]	further results
O=C(OCc1ccccc1)c1ccccc1 [Benzyl benzoate, benzyl benzoate]	>10000	–	–	–	–
C=C1CC/C=C(\C)CC[C@@H]2[C@@H]1CC2(C)C [Caryophyllene, beta-caryophyllene]	>10000	>10000	>10000	–	MIC 50 (Enterobacteriaceae): >10000; MIC 90 (Enterobacteriaceae): >10000; MIC Range (Enterobacteriaceae): >10000; MIC 50 [1]: >10000; MIC 90 [1]: >10000
CC12CCC(CC1)C(C)(C)O2 [Cineole, cineole]	>10000	–	–	–	–
O=C/C=C/c1ccccc1 [Cinnamaldehyde, trans-cinnamaldehyde]	–	600	1250	150-300	bibliographic kinetic data on the main compound (MRSA): 1.7 h; MIC Range (Enterobacteriaceae; in µg/mL): 150-600; MIC Range (Other Gram - rods; in µg/mL): 150-1250
CC(=O)OCC=Cc1ccccc1 [Cinnamyl acetate, cinnamyl acetate]	–	>10000	>10000	5000-10000	–
C=CC(C)(O)CCC=C(C)C (stereo not shown) [Linalool, linalool]	–	>10000	>10000	2500-10000	–
